Results taken from paper PMC8498988, “Scaffold Hybridization Strategy Leads to the Discovery of Dopamine D3 Receptor-Selective or Multitarget Bitopic Ligands Potentially Useful for Central Nervous System Disorders” (ACS Chemical Neuroscience, 2021).
Like-named read-outs stand apart in the source and are kept apart here. Marks after values point to notes of the source that are not given here.

How the values were obtained:
[1] = molecular target: T1, human D1R (Homo sapiens, UniProt P21728); details: human cloned receptor; read-out: Ki ± SEM, D1R; cited from earlier work
T1 construct: expressed in transfected cells; host or cells: mouse fibroblast cells (LhD1)
T1 sequence (P21728 whole entry): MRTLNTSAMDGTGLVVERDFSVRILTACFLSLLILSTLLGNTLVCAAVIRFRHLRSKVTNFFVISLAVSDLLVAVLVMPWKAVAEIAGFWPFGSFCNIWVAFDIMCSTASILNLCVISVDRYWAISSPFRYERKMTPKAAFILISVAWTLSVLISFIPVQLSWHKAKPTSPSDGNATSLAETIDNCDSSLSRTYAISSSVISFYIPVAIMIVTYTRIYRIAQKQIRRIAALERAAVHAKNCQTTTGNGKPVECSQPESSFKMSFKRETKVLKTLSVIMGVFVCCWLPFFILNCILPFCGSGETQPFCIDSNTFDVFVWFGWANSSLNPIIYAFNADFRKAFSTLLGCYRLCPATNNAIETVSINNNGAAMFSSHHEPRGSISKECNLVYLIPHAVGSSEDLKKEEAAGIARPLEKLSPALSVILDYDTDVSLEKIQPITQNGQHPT

[2] = molecular target: T2, D3R (Homo sapiens, UniProt P35462); set-up: expressed in transfected cells; host or cells: HEK293; details: cited from earlier work; for D2/D3: ratio of Ki values D2R/D3R; for D4/D3: ratio of Ki values D4R/D3R
T2 sequence (P35462 whole entry): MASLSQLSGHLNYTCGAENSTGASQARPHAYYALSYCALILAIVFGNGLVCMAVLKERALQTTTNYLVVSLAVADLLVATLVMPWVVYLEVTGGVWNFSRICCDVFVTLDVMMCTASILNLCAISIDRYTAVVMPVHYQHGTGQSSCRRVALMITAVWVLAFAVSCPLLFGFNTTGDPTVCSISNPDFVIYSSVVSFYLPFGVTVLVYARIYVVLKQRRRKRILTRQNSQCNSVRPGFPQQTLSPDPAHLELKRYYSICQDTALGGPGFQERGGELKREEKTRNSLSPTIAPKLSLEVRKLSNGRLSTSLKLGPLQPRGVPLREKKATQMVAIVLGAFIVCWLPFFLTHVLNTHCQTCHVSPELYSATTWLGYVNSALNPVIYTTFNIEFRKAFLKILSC

[3] = molecular target: D2R (Homo sapiens, UniProt P14416); set-up: expressed in transfected cells; host or cells: HEK293; details: human cloned receptor; read-out: Ki ± SEM, D2R; cited from earlier work
Sequence of D2R (P14416 whole entry): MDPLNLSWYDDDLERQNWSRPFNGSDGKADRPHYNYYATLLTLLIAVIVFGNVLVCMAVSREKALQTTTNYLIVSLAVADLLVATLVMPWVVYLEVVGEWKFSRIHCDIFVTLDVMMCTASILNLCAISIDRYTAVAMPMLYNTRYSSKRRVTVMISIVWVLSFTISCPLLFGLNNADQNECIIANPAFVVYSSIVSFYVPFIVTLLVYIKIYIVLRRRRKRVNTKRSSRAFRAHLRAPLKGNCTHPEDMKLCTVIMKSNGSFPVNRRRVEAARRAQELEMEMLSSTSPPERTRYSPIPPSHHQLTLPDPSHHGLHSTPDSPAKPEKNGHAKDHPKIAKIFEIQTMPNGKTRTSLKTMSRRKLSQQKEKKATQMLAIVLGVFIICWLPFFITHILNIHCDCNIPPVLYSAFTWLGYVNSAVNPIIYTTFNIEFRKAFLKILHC

[4] = molecular target: T3, human 5-HT1AR (Homo sapiens, UniProt P08908); details: human cloned receptor; read-out: Ki ± SEM, 5-HT1AR; cited from earlier work
T3 construct: expressed in transfected cells; host or cells: HeLa
T3 sequence (P08908 1-422): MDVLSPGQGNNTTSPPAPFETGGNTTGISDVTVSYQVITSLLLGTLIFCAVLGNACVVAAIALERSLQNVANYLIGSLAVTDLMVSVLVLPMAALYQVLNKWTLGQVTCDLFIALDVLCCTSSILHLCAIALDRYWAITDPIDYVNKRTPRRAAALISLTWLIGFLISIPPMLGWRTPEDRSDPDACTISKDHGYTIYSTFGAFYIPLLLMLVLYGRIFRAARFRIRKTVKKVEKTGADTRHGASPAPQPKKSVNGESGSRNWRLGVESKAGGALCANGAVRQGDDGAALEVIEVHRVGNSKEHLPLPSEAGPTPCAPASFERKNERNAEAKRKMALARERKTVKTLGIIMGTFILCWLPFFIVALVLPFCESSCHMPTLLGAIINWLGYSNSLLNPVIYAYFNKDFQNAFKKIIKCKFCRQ

[5] = molecular target: T2, D3R; assay: Radioligand competition binding at human D3R ([3H]N-methylspiperone, HEK293 membranes); set-up: expressed in transfected cells; host or cells: HEK293
Protocol: The novel hybrid derivatives 3–11 were tested at hD2R, hD3R, or hD4R stably expressed in HEK293 cells by competition binding assays, using [^3H]N-methylspiperone as the radioligand, to evaluate their D2-like affinity and subtype selectivity, following the previously reported procedures.[41],[45],[46]
Binding at dopamine D2-like receptors was determined using previously described methods.[41],[45],[46] Membranes were prepared from HEK293 cells stably expressing human D2, D3, or D4, grown in a 50:50 mix of Dulbecco’s minimal essential medium (DMEM) and Ham’s F12 culture media, supplemented with 20 mM HEPES, 2 mM L-glutamine, 0.1 mM nonessential amino acids, 1× antibiotic/antimycotic, 10% heat-inactivated fetal bovine serum, and 200 μg/mL hygromycin (Life Technologies, Grand Island, NY) and kept in an incubator at 37 °C and 5% CO2. Upon reaching 80–90% confluency, the cells were harvested using premixed Earle’s Balanced Salt Solution (EBSS) with 5 μM EDTA (Life Technologies) and centrifuged at 3000 rpm for 10 min at 21 °C. The supernatant was removed, and the pellet was resuspended in 10 mL hypotonic lysis buffer (5 mM MgCl2, 5 mM Tris, pH 7.4 at 4 °C) and centrifuged at 20,000 rpm for 30 min at 4 °C. The pellet was then resuspended in fresh EBSS buffer made from 8.7 g/L Earle’s Balanced Salts without phenol red (US Biological, Salem, MA), 2.2 g/L sodium bicarbonate, pH to 7.4. A Bradford protein assay (Bio-Rad, Hercules, CA) was used to determine the protein concentration, and membranes were diluted to 500 μg/mL and stored at −80 °C for later use. Radioligand competition binding experiments were conducted using thawed membranes. Test compounds were freshly dissolved in 30% DMSO and 70% H2O to a stock concentration of 100 μM. To assist the solubilization of free-base compounds, 10 μL of glacial acetic acid was added along with DMSO. Each test compound was then diluted into 13 half-log serial dilutions using 30% DMSO vehicle; the final test concentrations ranged from 10 μM to 10 pM. The previously frozen membranes were diluted in fresh EBSS to a 100 μg/mL (for D2 or D3) or 200 μg/mL (D4) stock for binding. Radioligand competition experiments were conducted in glass tubes containing 300 μL of fresh EBSS buffer, 50 μL of diluted test compound, 100 μL of membranes (10 μg of total protein for D2 or D3 and 20 μg of total protein for D4), and 50 μL of [^3H]N-methylspiperone (0.4 nM final concentration; PerkinElmer). Nonspecific binding was determined using 10 μM butaclamol (Sigma-Aldrich, St. Louis, MO), and total binding was determined with the 30% DMSO vehicle. All compound dilutions were tested in triplicate and the reaction was incubated for 1 h at room temperature. The reaction was terminated by filtration through Whatman GF/B filters, presoaked for 1 h in 0.5% polyethylenimine, using a Brandel R48 filtering manifold (Brandel Instruments, Gaithersburg, MD). The filters were washed three times with 3 mL of ice-cold EBSS buffer and transferred to scintillation vials. CytoScint liquid scintillation cocktail (3 mL, MP Biomedicals, Solon, OH) was added, and vials were counted using a PerkinElmer Tri-Carb 2910 TR liquid scintillation counter (Waltham, MA).

[6] = molecular target: 5-HT2AR (Homo sapiens, UniProt P28223); set-up: expressed in transfected cells; host or cells: HEK (HEK-h5HT2A); details: human cloned receptor; read-out: Ki ± SEM, 5-HT2AR; cited from earlier work
Sequence of 5-HT2AR (P28223 whole entry): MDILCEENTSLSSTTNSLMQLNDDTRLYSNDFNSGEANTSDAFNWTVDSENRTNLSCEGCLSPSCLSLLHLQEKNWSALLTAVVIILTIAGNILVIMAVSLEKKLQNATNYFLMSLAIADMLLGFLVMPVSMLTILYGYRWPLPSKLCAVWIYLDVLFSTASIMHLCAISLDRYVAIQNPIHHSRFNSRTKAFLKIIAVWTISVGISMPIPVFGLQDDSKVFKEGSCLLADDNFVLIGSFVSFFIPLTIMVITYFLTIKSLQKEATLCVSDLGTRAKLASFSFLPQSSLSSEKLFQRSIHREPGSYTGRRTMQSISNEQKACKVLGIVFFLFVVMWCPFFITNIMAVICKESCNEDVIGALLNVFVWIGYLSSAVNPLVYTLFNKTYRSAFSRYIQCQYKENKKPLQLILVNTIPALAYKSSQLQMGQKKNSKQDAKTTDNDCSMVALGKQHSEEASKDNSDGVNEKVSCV

[7] = molecular target: T4, 5-HT2CR (Homo sapiens, UniProt P28335); set-up: expressed in transfected cells; host or cells: HEK (HEK-h5HT2C); details: human cloned receptor; read-out: Ki ± SEM, 5-HT2CR; cited from earlier work
T4 sequence (P28335 33-458): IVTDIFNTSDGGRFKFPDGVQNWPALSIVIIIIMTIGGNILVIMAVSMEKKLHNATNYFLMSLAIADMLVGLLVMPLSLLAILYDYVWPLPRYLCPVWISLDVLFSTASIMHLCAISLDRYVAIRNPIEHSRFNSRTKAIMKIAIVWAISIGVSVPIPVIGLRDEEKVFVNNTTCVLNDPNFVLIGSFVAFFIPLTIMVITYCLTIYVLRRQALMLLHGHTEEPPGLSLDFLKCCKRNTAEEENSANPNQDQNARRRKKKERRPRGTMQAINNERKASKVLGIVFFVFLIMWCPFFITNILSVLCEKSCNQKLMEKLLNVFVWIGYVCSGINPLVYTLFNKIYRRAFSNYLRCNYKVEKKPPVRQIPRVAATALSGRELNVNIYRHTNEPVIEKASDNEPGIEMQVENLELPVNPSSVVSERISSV

## COc1ccccc1OCCNCC1COCC(c2ccccc2)(c2ccccc2)O1 (stereo not shown) [compound 1]
[1]
  Ki: 22.9 ± 3.1 nM

## CN1CCN(C2=Nc3cc(Cl)ccc3Nc3ccccc32)CC1 [clozapine]
[2]
  D2/D3: 0.62 ^e
  D4/D3: 0.21 ^e

## Cc1cc2c(s1)Nc1ccccc1N=C2N1CCN(C)CC1 [olanzapine]
[2]
  D2/D3: 0.62 ^e
  D4/D3: 0.51 ^e

## Oc1cccc(OCCNCC2COCC(c3ccccc3)(c3ccccc3)O2)c1 (stereo not shown) [compound 2]
[3]
  Ki: 3.16 ± 1 nM
[1]
  Ki: 123 ± 11 nM
[4]
  Ki: 1.15 ± 0.03 nM
[2]; human cloned receptor, read-out: Ki ± SEM, D3R
  Ki: 1.38 ± 0.07 nM
[5]; ratio of Ki values D2R/D3R
  D2/D3: 2
[5]; ratio of Ki values D4R/D3R
  D4/D3: 8
[6]
  Ki: 1410 ± 224 nM
[7]
  Ki: 9770 ± 501 nM
